Assay [1] addresses PI3K (Homo sapiens, UniProt P42336). Kind of assay: Fluorescence polarization assay for PI3K.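 Also: PI3K kinase reaction on PIP2 with ATP, 30-60 min, product sensed by GST-GRP with red probe in fluorescence polarization (mP), controls without enzyme and at zero time.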 The assay is classed as biochemical. Conditions: PI3Kα; read-out: PI3Kα IC50. (In general: Polarisation of emitted light reports the rotation of a fluorescent probe.)
Assay [2] has as its system prostate line LNCap. Kind of assay: In vitro cell culture growth assay (MTS), LNCap.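 Also: viable cell density read by absorbance at 490 nm, growth expressed as percent of vehicle-treated cells on the same plate.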 Conditions: LNCap cells, three days after drug treatment. Type of assay: cell-based, human.
Assay [3] has as its system breast line MDA468. Kind of assay: In vitro cell culture growth assay (MTS), MDA468. Type of assay: cell-based, human. Conditions: MDA468 cells, three days after drug treatment. The essentials: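 Steps: plate cells; add inhibitors the next day; incubate 3 days; add MTS dye, which viable cells convert metabolically; measure absorbance at 490 nm; calculate percent of control growth relative to vehicle-treated cells in the same plate.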

Molecules are shown by their SMILES.

Sequence of PI3K (P42336 whole entry): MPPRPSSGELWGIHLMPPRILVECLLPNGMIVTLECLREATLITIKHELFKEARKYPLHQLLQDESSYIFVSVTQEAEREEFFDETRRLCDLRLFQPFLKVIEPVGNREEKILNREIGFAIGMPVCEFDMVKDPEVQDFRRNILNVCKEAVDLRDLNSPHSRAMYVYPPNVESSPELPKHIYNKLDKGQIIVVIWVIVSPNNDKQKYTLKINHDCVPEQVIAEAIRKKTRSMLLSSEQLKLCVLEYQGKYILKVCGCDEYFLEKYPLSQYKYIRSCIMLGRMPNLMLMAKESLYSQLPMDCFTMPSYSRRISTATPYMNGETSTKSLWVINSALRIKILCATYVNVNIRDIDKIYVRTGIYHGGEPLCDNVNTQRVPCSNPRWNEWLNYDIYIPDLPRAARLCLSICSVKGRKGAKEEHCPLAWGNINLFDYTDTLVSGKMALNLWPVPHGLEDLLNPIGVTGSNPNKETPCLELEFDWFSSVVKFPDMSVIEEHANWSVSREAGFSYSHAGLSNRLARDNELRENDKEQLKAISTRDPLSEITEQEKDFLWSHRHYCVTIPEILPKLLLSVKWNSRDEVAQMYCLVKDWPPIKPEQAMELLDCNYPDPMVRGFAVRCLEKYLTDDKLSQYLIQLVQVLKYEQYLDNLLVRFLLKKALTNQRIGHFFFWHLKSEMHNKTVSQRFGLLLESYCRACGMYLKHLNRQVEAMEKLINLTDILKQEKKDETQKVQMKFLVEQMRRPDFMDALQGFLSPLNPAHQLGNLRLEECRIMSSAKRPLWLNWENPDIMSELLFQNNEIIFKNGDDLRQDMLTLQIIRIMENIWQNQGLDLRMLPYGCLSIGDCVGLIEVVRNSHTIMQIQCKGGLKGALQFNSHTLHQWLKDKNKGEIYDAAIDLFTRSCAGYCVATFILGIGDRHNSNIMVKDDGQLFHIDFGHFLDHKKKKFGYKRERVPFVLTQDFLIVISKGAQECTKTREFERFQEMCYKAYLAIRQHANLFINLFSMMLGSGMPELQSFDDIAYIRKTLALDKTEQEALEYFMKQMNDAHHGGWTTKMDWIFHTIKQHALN
Sequence of PI3K (P27986 whole entry partner): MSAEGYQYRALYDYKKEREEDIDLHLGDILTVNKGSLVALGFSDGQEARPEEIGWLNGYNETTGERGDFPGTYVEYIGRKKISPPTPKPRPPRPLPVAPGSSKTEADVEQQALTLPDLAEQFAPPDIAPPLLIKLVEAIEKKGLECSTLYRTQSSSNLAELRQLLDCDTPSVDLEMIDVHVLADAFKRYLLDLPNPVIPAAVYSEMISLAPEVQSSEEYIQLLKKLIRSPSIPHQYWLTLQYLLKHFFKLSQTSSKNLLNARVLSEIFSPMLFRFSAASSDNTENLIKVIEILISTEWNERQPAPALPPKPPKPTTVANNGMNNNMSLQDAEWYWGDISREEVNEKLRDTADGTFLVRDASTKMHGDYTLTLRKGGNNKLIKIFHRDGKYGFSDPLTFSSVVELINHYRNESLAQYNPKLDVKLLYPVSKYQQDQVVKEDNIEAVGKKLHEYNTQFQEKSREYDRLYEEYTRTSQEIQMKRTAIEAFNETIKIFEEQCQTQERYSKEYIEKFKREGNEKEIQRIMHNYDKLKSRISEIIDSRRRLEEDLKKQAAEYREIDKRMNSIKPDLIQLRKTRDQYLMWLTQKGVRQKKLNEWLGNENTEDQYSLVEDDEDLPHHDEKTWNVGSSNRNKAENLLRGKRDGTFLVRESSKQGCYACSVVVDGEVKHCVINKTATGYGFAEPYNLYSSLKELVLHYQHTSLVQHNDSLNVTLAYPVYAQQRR

As for `CCNC(=O)Nc1ccc(-c2nc(N3CCOCC3)c3cnn(C4CCN(Cc5cccnc5)CC4)c3n2)cc1` [Compound 563, 1-ethyl-3-(4-{4-morpholin-4-yl-1-[1-(pyridin-3-ylmethyl)piperidin-4-yl]-1H-pyrazolo[3,4-d]pyrimidin-6-yl}phenyl)urea], the IC50 in assay [1] is 187 nM; in assay [2] (Homo sapiens, LNCaP, 72 h) it was under 27 nM; in assay [3] (Homo sapiens, 72 h), 27 nM.

Consider `CNC(=O)Nc1ccc(-c2nc(N3CCOCC3)c3cnn(C4CCN(Cc5cccc(Cl)c5)CC4)c3n2)cc1` [Example 395, 1-(4-{1-[1-(3-chlorobenzyl)piperidin-4-yl]-4-morpholin-4-yl-1H-pyrazolo[3,4-d]pyrimidin-6-yl}phenyl)-3-methylurea], for which the concentration for half-maximal inhibition (IC50) was determined as 42 nM in assay [1]; 100 nM in assay [2] (Homo sapiens, LNCaP, 72 h); 500 nM in assay [3] (Homo sapiens, 72 h).

With `CNC(=O)Nc1ccc(-c2nc(N3CCOCC3)c3cnn(C4CCN(Cc5ccc(Cl)nc5)CC4)c3n2)cc1` [Example 388, 1-[4-(1-{1-[(6-chloropyridin-3-yl)methyl]piperidin-4-yl}-4-morpholin-4-yl-1H-pyrazolo[3,4-d]pyrimidin-6-yl)phenyl]-3-methylurea], the half-maximal inhibitory concentration (IC50) was determined as 47 nM in assay [1]; 27 nM in assay [2] (Homo sapiens, LNCaP, 72 h); 100 nM in assay [3].

Consider `CC(C)OC(=O)N1CCC(n2ncc3c(N4CCOCC4)nc(-c4ccc(NC(=O)NCCO)cc4)nc32)CC1` [Compound 834, isopropyl 4-[6-(4-{[(2-hydroxyethyl)carbamoyl]amino}phenyl)-4-morpholin-4-yl-1H-pyrazolo[3,4-d]pyrimidin-1-yl]piperidine-1-carboxylate], for which the IC50 in assay [1] is 450 nM; in assay [2] (Homo sapiens, LNCaP, 72 h), 220 nM; in assay [3] (Homo sapiens, 72 h), 180 nM.

On to `CNC(=O)Nc1ccc(-c2nc(N3CCOCC3)c3cnn(C4CCN(Cc5cccc(O)c5)CC4)c3n2)cc1` [Example 397, 1-(4-{1-[1-(3-hydroxybenzyl)piperidin-4-yl]-4-morpholin-4-yl-1H-pyrazolo[3,4-d]pyrimidin-6-yl}phenyl)-3-methylurea], for which the half-inhibitory concentration (IC50) is 28 nM in assay [1]; 140 nM in assay [2] (Homo sapiens, LNCaP, 72 h); 400 nM in assay [3] (Homo sapiens, 72 h).

For the compound `c1cc2cc(-c3nc(N4CCOCC4)c4cnn(C5CCCCO5)c4n3)ccc2[nH]1` (stereo not drawn) [Compound 237, 6-(1H-indol-5-yl)-4-morpholin-4-yl-1-(tetrahydro-2H-pyran-2-yl)-1H-pyrazolo[3,4-d]pyrimidine], the IC50 is 2420 nM in assay [1]; 4200 nM in assay [2] (Homo sapiens, LNCaP, 72 h); 1000 nM in assay [3] (Homo sapiens, 72 h).

In the case of `CNC(=O)Nc1ccc(-c2nc(N3CCOCC3)c3cnn(C4CCN(Cc5ccc(C)cc5)CC4)c3n2)cc1` [Compound 675, 1-methyl-3-(4-{1-[1-(4-methylbenzyl)piperidin-4-yl]-4-morpholin-4-yl-1H-pyrazolo[3,4-d]pyrimidin-6-yl}phenyl)urea], the figures for the half-inhibitory concentration (IC50) in assay [1], in assay [2] and in assay [3] were 25 nM, under 27 nM and 110 nM, respectively.

Turning to `Nc1ncc(-c2nc(N3CCOCC3)c3cnn(C4CCN(Cc5cccnc5)CC4)c3n2)cn1` [Compound 211], the IC50 was found to be 23 nM in assay [1]; 170 nM in assay [2] (Homo sapiens, LNCaP, 72 h); 800 nM in assay [3] (Homo sapiens, 72 h).

As for `COCCNCCc1ccc(NC(=O)Nc2ccc(-c3nc(N4CCOCC4)c4cnn(C5CCN(C(=O)OC)CC5)c4n3)cc2)cc1` [Compound 922, methyl 4-[6-(4-{[(4-{2-[(2-methoxyethyl)amino]ethyl}phenyl)carbamoyl]amino}phenyl)-4-morpholin-4-yl-1H-pyrazolo[3,4-d]pyrimidin-1-yl]piperidine-1-carboxylate], the half-maximal inhibitory concentration (IC50) in assay [1] was 30 nM; in assay [2] (Homo sapiens, LNCaP, 72 h), under 0.8 nM; in assay [3] (Homo sapiens, 72 h) it was 90 nM.

As to `COC(=O)N1CCC(n2ncc3c(N4CCOCC4)nc(-c4ccc(NC(=O)Nc5ccc(N6CCOCC6)nc5)cc4)nc32)CC1` [Compound 911, methyl 4-[4-morpholin-4-yl-6-(4-{[(6-morpholin-4-ylpyridin-3-yl)carbamoyl]amino}phenyl)-1H-pyrazolo[3,4-d]pyrimidin-1-yl]piperidine-1-carboxylate], the IC50 in assay [1] turned out to be 118 nM; in assay [2] (Homo sapiens, LNCaP, 72 h), 0.8 nM; in assay [3] (Homo sapiens, 72 h), 10 nM.

As to `CNC(=O)Nc1ccc(-c2nc(N3CCOCC3)c3cnn(C4CCC5(CC4)OCCO5)c3n2)cc1` [Example 321, 1-{4-[1-(1,4-dioxaspiro[4.5]dec-8-yl)-4-morpholin-4-yl-1H-pyrazolo[3,4-d]pyrimidin-6-yl]phenyl}-3-methylurea], the IC50 came to 74 nM in assay [1]; 27 nM in assay [2] (Homo sapiens, LNCaP, 72 h); 100 nM in assay [3] (Homo sapiens, 72 h).

With `O=C(Nc1ccc(-c2nc(N3CCOCC3)c3cnn(C4CCN(Cc5ccccc5)CC4)c3n2)cc1)NN1CCCC1` [Compound 291, 1-{4-[1-(1-benzylpiperidin-4-yl)-4-morpholin-4-yl-1H-pyrazolo[3,4-d]pyrimidin-6-yl]phenyl}-3-pyrrolidin-1-ylurea], the 50% inhibitory concentration (IC50) stood at 4230 nM in assay [1]; 3000 nM in assay [2] (Homo sapiens, LNCaP, 72 h); 10000 nM in assay [3] (Homo sapiens, 72 h).

Regarding `CNC(=O)Nc1ccc(-c2nc(N3CCOCC3)c3cnn(C4CCN(Cc5cccc(OC)c5)CC4)c3n2)cc1` [Example 400, 1-(4-{1-[1-(3-methoxybenzyl)piperidin-4-yl]-4-morpholin-4-yl-1H-pyrazolo[3,4-d]pyrimidin-6-yl}phenyl)-3-methylurea], the half-maximal inhibitory concentration (IC50) in assay [1] was 43 nM; in assay [2] (Homo sapiens, LNCaP, 72 h), 70 nM; in assay [3] (Homo sapiens, 72 h), 500 nM.

`O=[N+]([O-])c1ccc(-c2nc(N3CCOCC3)c3cnn(-c4ccccc4)c3n2)cc1` [Compound 119]: the IC50 in assay [1] is 1160 nM; in assay [2] (Homo sapiens, LNCaP, 72 h), 60000 nM; in assay [3] (Homo sapiens, 72 h), 60000 nM.

`CNC(=O)Nc1ccc(-c2nc(N3CCOCC3)c3cnn(C4CCN(Cc5ccc(F)nc5)CC4)c3n2)cc1` [Compound 632, 1-[4-(1-{1-[(6-fluoropyridin-3-yl)methyl]piperidin-4-yl}-4-morpholin-4-yl-1H-pyrazolo[3,4-d]pyrimidin-6-yl)phenyl]-3-methylurea]: the values for the IC50 in assay [1], in assay [2] and in assay [3] were 108 nM, 35 nM and 120 nM, respectively.

On to `CCNC(=O)Nc1ccc(-c2nc(N3CCOC(C)C3)c3cnn(C4CCN(C(=O)OC)CC4)c3n2)cc1` (stereo not drawn) [Compound 842, methyl 4-[6-{4-[(ethylcarbamoyl)amino]phenyl}-4-(2-methylmorpholin-4-yl)-1H-pyrazolo[3,4-d]pyrimidin-1-yl]piperidine-1-carboxylate], for which the IC50 is 721 nM in assay [1]; 70 nM in assay [2] (Homo sapiens, LNCaP, 72 h); 1000 nM in assay [3] (Homo sapiens, 72 h).

For `CCNC(=O)Nc1ccc(-c2nc(N3CCOCC3)c3cnn(C4CCN(C(=O)OCC)CC4)c3n2)cc1` [Compound 820, ethyl 4-(6-{4-[(ethylcarbamoyl)amino]phenyl}-4-morpholin-4-yl-1H-pyrazolo[3,4-d]pyrimidin-1-yl)piperidine-1-carboxylate], the half-inhibitory concentration (IC50) in assay [1] is 704 nM; in assay [2] (Homo sapiens, LNCaP, 72 h) it was under 27 nM; in assay [3] (Homo sapiens, 72 h) it was 130 nM.

Consider `c1cc2cc(-c3nc(N4CCOCC4)c4cn[nH]c4n3)ccc2[nH]1` [Compound 248, 6-(1H-indol-5-yl)-4-morpholin-4-yl-1H-pyrazolo[3,4-d]pyrimidine], for which the IC50 worked out at 939 nM in assay [1]; 3500 nM in assay [2] (Homo sapiens, LNCaP, 72 h); 9000 nM in assay [3] (Homo sapiens, 72 h).

As to `CNC(=O)Nc1ccc(-c2nc(N3CCOCC3)c3cnn(C4CCN(C(=O)SC)CC4)c3n2)cc1` [Compound 761, S-methyl 4-(6-{4-[(methylcarbamoyl)amino]phenyl}-4-morpholin-4-yl-1H-pyrazolo[3,4-d]pyrimidin-1-yl)piperidine-1-carbothioate], the half-inhibitory concentration (IC50) in assay [1] was 72 nM; in assay [2] (Homo sapiens, LNCaP, 72 h), 50 nM; in assay [3] (Homo sapiens, 72 h), 120 nM.

For the compound `O=C(Nc1ccc(-c2nc(N3CCOCC3)c3cn[nH]c3n2)cc1)c1cccnc1` [Compound 524, N-[4-(4-morpholin-4-yl-1H-pyrazolo[3,4-d]pyrimidin-6-yl)phenyl]nicotinamide], the IC50 amounted to 1170 nM in assay [1]; 7200 nM in assay [2] (Homo sapiens, LNCaP, 72 h); 60000 nM in assay [3] (Homo sapiens, 72 h).

For the compound `O=C(Nc1ccc(-c2nc(N3CCOCC3)c3cnn(C4CCN(C(=O)c5ccccc5)CC4)c3n2)cc1)Nc1cccnc1` [Compound 624, 1-{4-[1-(1-benzoylpiperidin-4-yl)-4-morpholin-4-yl-1H-pyrazolo[3,4-d]pyrimidin-6-yl]phenyl}-3-pyridin-3-ylurea], the IC50 in assay [1] is 34 nM; in assay [2], under 27 nM; in assay [3] (Homo sapiens, 72 h), under 27 nM.

For `CNC(=O)Nc1ccc(-c2nc(N3CCOCC3)c3cnn(C4CCN(C(=O)c5cccc(OC)c5)CC4)c3n2)cc1` [Compound 610, 1-(4-{1-[1-(3-methoxybenzoyl)piperidin-4-yl]-4-morpholin-4-yl-1H-pyrazolo[3,4-d]pyrimidin-6-yl}phenyl)-3-methylurea], the half-maximal inhibitory concentration (IC50) was 75 nM in assay [1]; 35 nM in assay [2] (Homo sapiens, LNCaP, 72 h); 340 nM in assay [3] (Homo sapiens, 72 h).

Turning to `CN(C)CC(=O)Nc1ccc(-c2nc(N3CCOCC3)c3cn[nH]c3n2)cc1` [Compound 281, N~2~,N~2~-dimethyl-N-[4-(4-morpholin-4-yl-1H-pyrazolo[3,4-d]pyrimidin-6-yl)phenyl]glycinamide], the half-inhibitory concentration (IC50) in assay [1] was found to be 2270 nM; in assay [2] (Homo sapiens, LNCaP, 72 h), 7000 nM; in assay [3] (Homo sapiens, 72 h), 18000 nM.

For the compound `Oc1cccc(-c2nc(N3CCOCC3)c3cnn(CCN4CCCCC4)c3n2)c1` [Compound 126], the 50% inhibitory concentration (IC50) in assay [1] is 60 nM; in assay [2] (Homo sapiens, LNCaP, 72 h) it was 3300 nM; in assay [3] (Homo sapiens, 72 h), 13000 nM.

For the compound `CNC(=O)Nc1ccc(-c2nc(N3CCOCC3)c3cnn(C4CCN(Cc5ccc(F)cc5)CC4)c3n2)cc1` [Compound 427, 1-(4-{1-[1-(4-fluorobenzyl)piperidin-4-yl]-4-morpholin-4-yl-1H-pyrazolo[3,4-d]pyrimidin-6-yl}phenyl)-3-methylurea], the IC50 stood at 34 nM in assay [1]; 27 nM in assay [2] (Homo sapiens, LNCaP, 72 h); 200 nM in assay [3] (Homo sapiens, 72 h).

As usually defined, the IC50 is the midpoint of a concentration-inhibition curve.
